# In patent publication US12247064B2, “Modified ligand-gated ion channels and methods of use” (Howard Hughes Medical Institute, priority 2017, dated 2025):
# Where two headings read alike, the source gives them in different places.
# How the values were obtained:
# α7GlyR Q79G G175K Y115F = biological target: T1, α7GlyR Q79G G175K Y115F (Homo sapiens, UniProt P36544, G175K/Q79G/Y115F); assay: Agonist potency at chimeric channel; assay type: cell-based; conditions: Table 6
# T1 construct: expressed in transfected cells
# T1 sequence (P36544 with tags, fused parts or gaps Q79G/Y115F/G175K): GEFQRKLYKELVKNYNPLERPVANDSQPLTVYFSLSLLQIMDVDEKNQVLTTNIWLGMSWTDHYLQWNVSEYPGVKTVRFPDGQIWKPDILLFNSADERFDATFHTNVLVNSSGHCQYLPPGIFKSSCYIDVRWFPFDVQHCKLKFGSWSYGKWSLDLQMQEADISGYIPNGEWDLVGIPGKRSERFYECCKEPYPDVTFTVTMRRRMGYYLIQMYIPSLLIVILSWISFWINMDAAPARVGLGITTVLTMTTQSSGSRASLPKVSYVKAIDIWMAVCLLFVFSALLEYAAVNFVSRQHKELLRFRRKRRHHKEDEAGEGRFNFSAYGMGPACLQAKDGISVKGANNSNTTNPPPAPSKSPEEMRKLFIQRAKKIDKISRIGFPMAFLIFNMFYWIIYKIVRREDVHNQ
# α7-5HT3 = α7-5HT3 (Homo sapiens, UniProt P36544, M226I/T225I)
# α7-5HT3, sequence (P36544 with tags, fused parts or gaps T225I/M226I limits assumed): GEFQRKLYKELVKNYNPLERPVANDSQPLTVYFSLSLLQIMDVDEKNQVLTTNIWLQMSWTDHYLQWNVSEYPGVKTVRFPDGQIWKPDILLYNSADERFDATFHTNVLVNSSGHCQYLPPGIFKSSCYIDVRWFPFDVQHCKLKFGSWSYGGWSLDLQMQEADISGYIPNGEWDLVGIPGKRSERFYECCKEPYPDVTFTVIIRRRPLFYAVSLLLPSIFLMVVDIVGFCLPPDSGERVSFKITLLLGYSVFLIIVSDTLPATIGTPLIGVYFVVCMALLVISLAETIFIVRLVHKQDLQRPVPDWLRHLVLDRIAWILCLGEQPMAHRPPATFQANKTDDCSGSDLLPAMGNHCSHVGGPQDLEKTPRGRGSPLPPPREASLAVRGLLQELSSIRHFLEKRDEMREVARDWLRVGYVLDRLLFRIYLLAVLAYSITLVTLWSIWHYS
# α7GlyR W77F Q79G G175K = biological target: T2, α7GlyR W77F Q79G G175K (Homo sapiens, UniProt P36544, G175K/Q79G/W77F); assay: Agonist potency at chimeric channel; assay type: cell-based; conditions: Table 6
# T2 construct: expressed in transfected cells
# T2 sequence (P36544 with tags, fused parts or gaps W77F/Q79G/G175K): as the sequence (P36544 with tags, fused parts or gaps Q79G/Y115F/G175K) above, with W55F, F93Y counted along it
# α7^R21D,E41R-5HT3 = biological target: T3, α7^R21D,E41R-5HT3 (Homo sapiens, UniProt P36544, E41R/M226I/R27D/T225I); assay: Whole cell recordings in HEK cells expressing charge reversal channel; assay type: cell-based; conditions: V5 epitope tag
# T3 construct: expressed in transfected cells; host or cells: HEK cells
# T3 sequence (P36544 with tags, fused parts or gaps R27D/E41R/T225I/M226I): as the sequence (P36544 with tags, fused parts or gaps T225I/M226I limits assumed) above, with R5D, E19R counted along it
# [1] = test system: α7GlyR G175K / A298G mutant chimeric channels; assay type: cell-based, human; conditions: read-out: Agonist potency
# α7^Q79G-5HT3 = biological target: T4, α7^Q79G-5HT3 (Homo sapiens, UniProt P36544, M226I/Q79G/T225I); assay type: cell-based, human α7 nAChR LBD, murine 5HT3 IPD; conditions: HEK cells; Table 1
# T4 construct: expressed in transfected cells; host or cells: HEK cells
# T4 sequence (P36544 with tags, fused parts or gaps Q79G/T225I/M226I limits assumed): as the sequence (P36544 with tags, fused parts or gaps T225I/M226I limits assumed) above, with Q57G counted along it
# α7^Q79G-GlyR = biological target: T5, α7^Q79G-GlyR (Homo sapiens, UniProt P36544, Q79G); assay type: cell-based; conditions: HEK cells; Table 2; read-out: Mean EC50 and SEM in parentheses
# T5 construct: expressed in transfected cells; host or cells: HEK cells
# T5 sequence (P36544 with tags, fused parts or gaps Q79G): as the sequence (P36544 with tags, fused parts or gaps Q79G/Y115F/G175K) above, with F93Y, K153G counted along it
# α7^Q79A-5HT3 = biological target: T6, α7^Q79A-5HT3 (Homo sapiens, UniProt P36544, M226I/Q79A/T225I); assay type: cell-based, human α7 nAChR LBD, murine 5HT3 IPD; conditions: HEK cells; Table 1
# T6 construct: expressed in transfected cells; host or cells: HEK cells
# T6 sequence (P36544 with tags, fused parts or gaps Q79A/T225I/M226I limits assumed): as the sequence (P36544 with tags, fused parts or gaps T225I/M226I limits assumed) above, with Q57A counted along it
# α7-GlyR = α7-GlyR (Homo sapiens, UniProt P36544)
# α7-GlyR, sequence (P36544 with tags, fused parts or gaps): as the sequence (P36544 with tags, fused parts or gaps Q79G/Y115F/G175K) above, with G57Q, F93Y, K153G counted along it
# α7^Q79S-5HT3 = biological target: T7, α7^Q79S-5HT3 (Homo sapiens, UniProt P36544, M226I/Q79S/T225I); assay type: cell-based, human α7 nAChR LBD, murine 5HT3 IPD; conditions: HEK cells; Table 1
# T7 construct: expressed in transfected cells; host or cells: HEK cells
# T7 sequence (P36544 with tags, fused parts or gaps Q79S/T225I/M226I limits assumed): as the sequence (P36544 with tags, fused parts or gaps T225I/M226I limits assumed) above, with Q57S counted along it
# α7-GlyR^A298G = biological target: T8, α7-GlyR^A298G (Homo sapiens, UniProt P36544, A298G); assay type: cell-based; conditions: HEK cells; Table 2; read-out: Mean EC50 and SEM in parentheses
# T8 construct: expressed in transfected cells; host or cells: HEK cells
# T8 sequence (P36544 with tags, fused parts or gaps, stated change not applied): as the sequence (P36544 with tags, fused parts or gaps Q79G/Y115F/G175K) above, with G57Q, F93Y, K153G, A276G counted along it
# α7^Q79A-GlyR = biological target: T9, α7^Q79A-GlyR (Homo sapiens, UniProt P36544, Q79A); assay type: cell-based; conditions: HEK cells; Table 2; read-out: Mean EC50 and SEM in parentheses
# T9 construct: expressed in transfected cells; host or cells: HEK cells
# T9 sequence (P36544 with tags, fused parts or gaps Q79A): as the sequence (P36544 with tags, fused parts or gaps Q79G/Y115F/G175K) above, with G57A, F93Y, K153G counted along it
# 5HT3-R = biological target: T10, 5HT3-R (Homo sapiens, UniProt P46098); assay: Agonist potency at 5HT3-R; assay type: cell-based
# T10 sequence (P46098 24-478): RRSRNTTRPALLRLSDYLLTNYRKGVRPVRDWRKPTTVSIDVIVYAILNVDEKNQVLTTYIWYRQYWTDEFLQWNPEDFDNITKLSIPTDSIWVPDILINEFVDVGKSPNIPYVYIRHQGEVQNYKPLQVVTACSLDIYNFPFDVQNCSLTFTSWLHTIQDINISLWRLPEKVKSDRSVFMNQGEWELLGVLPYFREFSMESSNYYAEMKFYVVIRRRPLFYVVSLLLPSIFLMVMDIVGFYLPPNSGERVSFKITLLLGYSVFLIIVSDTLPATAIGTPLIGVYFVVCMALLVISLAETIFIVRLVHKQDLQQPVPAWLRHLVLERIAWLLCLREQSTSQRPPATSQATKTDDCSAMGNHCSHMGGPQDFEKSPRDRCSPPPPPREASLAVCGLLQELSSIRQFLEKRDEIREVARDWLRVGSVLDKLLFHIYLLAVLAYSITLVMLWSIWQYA
# α7GABAc W298A (GABAA-ρ) = assay: Agonist potency at α7GABAc channel with W298A (Table 7); assay type: cell-based, human; conditions: a7GABAc Q79G L141F W298A
# [2] = test system: cortical neurons expressing PSAM^4-5HT3 HC; assay: Chemogenetic activation of cortical neurons expressing PSAM^4-5HT3 HC; assay type: cell-based, mouse
# Description: FIGS. 12A-12F show chemogenetic perturbation of cortical neuron activity. […] FIG. 12C) Cortical layer 2/3 neuron membrane properties were similar in PSAM^4-GlyR expressing neurons and intermingled untransfected control neurons. […] FIG. 12F) Cortical layer 2/3 neuron membrane properties are similar in PSAM^4-5HT3 HC expressing neurons and intermingled untransfected control neurons. Data are mean±SEM. Mann Whitney U-test, n.s. P>0.05, ***P<0.001.
# Chemogenetic perturbation of cortical neuron activity was evaluated. […] Cortical layer 2/3 neuron membrane properties were similar in PSAM^4-GlyR expressing neurons and intermingled untransfected control neurons. […] Cortical layer 2/3 neuron membrane properties are similar in PSAM^4-5HT3 HC expressing neurons and intermingled untransfected control neurons. See, e.g., FIG. 12.
# α7^L131A-GlyR = biological target: T11, α7^L131A-GlyR (Homo sapiens, UniProt P36544, L131A); assay type: cell-based; conditions: over α7-GlyR
# T11 construct: expressed in transfected cells
# T11 sequence (P36544 with tags, fused parts or gaps L131A limits assumed): as the sequence (P36544 with tags, fused parts or gaps Q79G/Y115F/G175K) above, with G57Q, F93Y, L109A, K153G counted along it
# [3] = test system: mice expressing PSAM^4-GlyR unilaterally in SNr; assay: Unilateral SNr silencing rotation assay; assay type: in vivo, mouse
# α4β2 nAChR [4] = biological target: T12, α4β2 nAChR (Homo sapiens, UniProt P17787+P43681); assay: Agonist potency at α4β2 nAChR
# T12 sequence (P43681 29-627 limits assumed): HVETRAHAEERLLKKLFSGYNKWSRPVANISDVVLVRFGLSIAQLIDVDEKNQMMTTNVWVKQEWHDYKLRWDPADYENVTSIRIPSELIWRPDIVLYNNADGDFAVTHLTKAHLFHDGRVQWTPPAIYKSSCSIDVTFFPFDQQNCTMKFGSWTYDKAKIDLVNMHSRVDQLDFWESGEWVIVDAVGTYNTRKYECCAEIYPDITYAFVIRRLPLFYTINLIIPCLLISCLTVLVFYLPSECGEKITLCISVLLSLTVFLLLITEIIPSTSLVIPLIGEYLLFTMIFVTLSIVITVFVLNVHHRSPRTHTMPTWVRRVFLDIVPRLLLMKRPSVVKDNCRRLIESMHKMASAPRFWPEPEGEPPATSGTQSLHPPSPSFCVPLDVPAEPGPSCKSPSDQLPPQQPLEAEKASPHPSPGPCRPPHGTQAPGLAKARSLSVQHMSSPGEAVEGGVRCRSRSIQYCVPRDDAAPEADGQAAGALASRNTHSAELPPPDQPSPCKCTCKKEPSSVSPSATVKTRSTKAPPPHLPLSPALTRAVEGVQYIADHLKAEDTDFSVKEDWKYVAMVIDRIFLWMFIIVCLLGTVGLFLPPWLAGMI
# T12 sequence (P17787 26-502): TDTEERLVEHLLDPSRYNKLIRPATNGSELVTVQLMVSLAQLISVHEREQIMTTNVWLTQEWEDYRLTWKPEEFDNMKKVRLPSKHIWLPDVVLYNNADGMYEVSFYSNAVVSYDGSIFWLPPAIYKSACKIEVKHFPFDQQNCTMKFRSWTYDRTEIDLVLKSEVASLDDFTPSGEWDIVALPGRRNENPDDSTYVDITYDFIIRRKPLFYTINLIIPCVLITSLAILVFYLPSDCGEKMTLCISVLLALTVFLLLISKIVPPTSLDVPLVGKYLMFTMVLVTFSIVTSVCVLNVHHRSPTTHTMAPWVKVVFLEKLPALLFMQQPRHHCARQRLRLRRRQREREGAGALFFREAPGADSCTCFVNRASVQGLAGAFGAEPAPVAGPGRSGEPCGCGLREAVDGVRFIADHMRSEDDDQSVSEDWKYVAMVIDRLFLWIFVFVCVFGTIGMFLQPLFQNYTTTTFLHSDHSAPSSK
# α4β2 nAChR [5] = biological target: T12, α4β2 nAChR; assay type: cell-based
# Description: FIGS. 14A-14J show ultrapotent chemogenetic agonists (uPSEMs). […] LED: lowest effective dose for mice in SNr rotation assay. Units: nM; parentheses: SEM. Selectivity relative to PSAM^4-GlyR in bold. […] (FIG. 14E) Response amplitude normalized to ACh.
# [6] = α7GlyR Q79G A298G Y115F K395 K396A
smiles,measurement,setting,value
"c1ccc2c(c1)Sc1ccccc1N2CC1CN2CCC1CC2 (centres unmarked) [Mequitazine, reference compound]",EC50,α7GlyR Q79G G175K Y115F,> 10000 nM
same,EC50,"α7-5HT3; read-out: Potency, Table 6",> 30000 nM
same,EC50,α7GlyR W77F Q79G G175K,150 nM
O=C(NC1CN2CCC1CC2)c1ccc(Cl)cc1 (centres unmarked) [PNU-282987],whole cell responses,"α7^R21D,E41R-5HT3",potent responses
same,EC50,[1]; α7GlyR Q79G A298G G175K Y115F,9 nM
same,EC50,[1]; α7GlyR Q79G A298G P216I,250 nM
same,EC50,[1]; [6],110 nM
same,EC50,[1]; α7GlyR Q79G G175K A298G,0.36 nM
same,EC50,[1]; α7GlyR Q79G W77F A298G,1630 nM
same,EC50,[1]; α7GlyR R27D E41R Q79G Y115F,340 nM
Cn1cc(C(=O)C(=O)NC2CN3CCC2CC3)c2ccccc21 (centres unmarked) [RS56812],EC50,α7^Q79G-5HT3,1400 nM
same,EC50,α7^Q79G-GlyR,2000 nM
same,EC50,α7^Q79A-5HT3,6800 nM
same,EC50,α7-GlyR,6500 nM
same,EC50,α7^Q79S-5HT3,5700 nM
same,EC50,α7-GlyR^A298G,2300 nM
same,EC50,"α7-5HT3; read-out: Mean EC50, HEK cells, Table 1",10000 nM
same,EC50,α7^Q79A-GlyR,3500 nM
c1cnc2cc3c(cc2n1)[C@@H]1CNC[C@H]3C1 [Varenicline],EC50,"5HT3-R; 5HT3-R, Table 10",1400 nM
same,EC50,α7GABAc W298A (GABAA-ρ),6270 nM
same,membrane potential and firing,[2],depolarizes and elicits firing
same,EC50,[1]; α7GlyR Q79G A298G G175K Y115F,2370 nM
same,EC50,[1]; [6],> 30000 nM
same,EC50,[1]; α7GlyR Q79G G175K A298G,22 nM
same,EC50,[1]; α7GlyR Q79G W77F A298G,3660 nM
same,EC50,[1]; α7GlyR R27D E41R Q79G Y115F,> 30000 nM
same,enhanced potency,α7^L131A-GlyR,8 fold
same,rotation response,"[3]; low doses, intraperitoneal, not in sham operated or EGFP-alone mice",elicit contraversive rotation
same,doses at which circling contralateral to the silenced SNr was seen,[3]; mice,above 0.1 mpk
same,improvement in potency over anti-nicotine activity,[3]; mice,10 fold
same,tachyphylaxis of the chemogenetic response,[3]; two doses separated by 5 hours,no tachyphylaxis
CCCOc1cnc2cc3c(cc2n1)C1CNCC3C1 (centres unmarked) [compound 817],EC50,5HT3-R; read-out: EC50MP,1500 ± 1000 nM
same,α4β2 nAChR agonism,α4β2 nAChR [4],do not show evident α4β2 nAChR agonism
same,EC50,α4β2 nAChR [4]; read-out: EC50MP,> 30000 nM
same,effect on α4β2 nAChR,α4β2 nAChR [5],inhibits
same,EC50,α7-GlyR,> 100000 nM
same,EC50,α7-5HT3; read-out: EC50MP,> 100000 nM
same,In vivo potency,[3]; SNr silencing rotation assay in mice,0.1 mpk
